According to ChEMBL document CHEMBL3301361, “Experimental in vitro DMPK and physicochemical data on a set of publicly disclosed compounds”:
In brackets after ≈: the same amount, converted by molar mass.

Assays:
[1] = in vitro; settings: SD, HW or BN, rat, plasma
[2] = in vitro; settings: Beagle, dog, plasma
[3] = physchem
[4] = in vitro; settings: hepatocytes
[5] = in vitro; settings: human
[6] = physchem; settings: octan-1-ol/water
[7] = in vitro; settings: human, hepatocytes
[8] = in vitro; settings: human, plasma
[9] = physchem; settings: pH 7.4 buffer

SMILES | fraction unbound at 5 h [2] | logD ([6]; pH 7.4, LogD7.4) | fraction unbound at 5 h ([8]; PPB) | also measured
NC(=O)c1cnc(N[C@H]2CCCNC2)c2cc(-c3ccccc3)sc12 | 0.0366 |  |  | fraction unbound at 5 h [1]: 0.224
O=C(O)COc1ccc(C(F)(F)F)cc1CN1CCN(C(=O)c2ccccc2)CC1 |  |  |  | pKa [3]: 6.9; hepatocyte CLint [4]: < 3 µL/min/1e6 cells; microsomal CLint ([5]; liver microsomes): 4.7 µL/min/mg
CNCC[C@@H](Oc1cc(OC)ccc1C#N)c1ccccc1 |  | 0.87 |  | pKa [3]: 10.2; hepatocyte CLint [4]: 142 µL/min/1e6 cells; microsomal CLint ([5]; liver microsomes): 26 µL/min/mg
CN(C)CCN1CCN(c2cc(C(=O)NC[C@H]3CC[C@H](CNC(=O)OC(C)(C)C)CC3)c3ccccc3n2)CC1 | 0.0293 |  |  | 
Cc1cc(-c2ccc(Cl)c(C(=O)NCC3(O)CCCCCC3)c2)nn1C[C@H](O)CN |  | 0.57 | 0.304 | hepatocyte CLint [7]: < 3 µL/min/1e6 cells; pKa [3]: 8.6; hepatocyte CLint [4]: < 3 µL/min/1e6 cells; fraction unbound at 5 h [1]: 0.309; microsomal CLint ([5]; liver microsomes): < 3 µL/min/mg
Cc1c(Sc2ccc(Cl)cc2)c2c(S(C)(=O)=O)cccc2n1CC(=O)O | 0.0256 | 0.58 | 0.035 | microsomal CLint ([5]; microsomes): < 3 µL/min/mg
Cc1c(CC(=O)O)c2cc(F)ccc2n1S(=O)(=O)c1ccc(S(C)(=O)=O)cc1 | 0.0521 | -0.44 |  | 
NC1=Nc2ccccc2Sc2cccc(F)c21 |  |  | 0.0568 | hepatocyte CLint [7]: 13.2 µL/min/1e6 cells; pKa [3]: 6.5
NC1=Nc2ccccc2Sc2ccccc21 |  |  |  | hepatocyte CLint [7]: 7.94 µL/min/1e6 cells; pKa [3]: 7.2
CC(C)Cn1c(=O)n(C)c(=O)c2c(C(=O)N3CC[C@@H](O)C3)c(Cc3c[nH]c4ccccc34)sc21 | 0.443 | 2.35 | 0.0854 | microsomal CLint ([5]; liver microsomes): 107 µL/min/mg
Cc1cc(F)ccc1Oc1cccc2c(=O)cc(N3CCOCC3)[nH]c12 | 0.0088 |  |  | fraction unbound at 5 h [1]: 0.0854
COc1ncc(-c2cccc3c2C[C@H](NC(=O)c2ccc(COCC(F)(F)F)nc2)CO3)cn1 | 0.0705 |  | 0.0366 | solubility thermodynamic [9]: 158 µM (≈ 75.2 µg/mL)
Cc1ccc2c(c1)c(-c1cc(C)nc3ccccc13)c(C)n2CC(=O)O | 0.0133 | 2.88 | 0.004 | microsomal CLint ([5]; liver microsomes): < 3 µL/min/mg
COc1ccc2c(c1)c(CC(=O)O)c(C)n2-c1ccnc2cc(Cl)ccc12 | 0.0183 | 1.68 | 0.0099 | microsomal CLint ([5]; liver microsomes): < 3 µL/min/mg
Cc1c(Cl)ccc(OC2CCN(C3CCN(C(=O)c4cccc(S(C)(=O)=O)c4)CC3)CC2)c1Cl | 0.035 | 3.33 | 0.035 | microsomal CLint ([5]; liver microsomes): 13.5 µL/min/mg
COc1ccc(NC(=O)c2ccc(Cn3ccnn3)c3ccccc23)c(C(=O)NCC2CCOCC2)n1 | 0.028 |  |  | 
CC(C)(C)NC(=O)NCCN1CCN(CC(=O)Nc2cc(Cl)cc(Cl)c2)CC1 | 0.0556 |  | 0.0521 | 
CC(C)c1nc2ccc(-c3ccc(F)cc3)cc2c(=O)n1C[C@H]1CCCN(C(C)C)C1 |  | 3.6 |  | pKa [3]: 9.91; solubility thermodynamic [9]: 537 µM (≈ 226 µg/mL); hepatocyte CLint [4]: 29.5 µL/min/1e6 cells; microsomal CLint ([5]; microsomes): 12.9 µL/min/mg
Cc1nc2ccc(-c3ccc(Cl)cc3)cc2c(=O)n1C[C@H]1CCCN(C(C)C)C1 |  | 3.3 |  | pKa [3]: 10.1; hepatocyte CLint [4]: 3.8 µL/min/1e6 cells; microsomal CLint ([5]; microsomes): < 3 µL/min/mg
OC[C@H]1C[C@@H](n2nnc3c(N[C@@H]4C[C@H]4c4ccc(F)c(F)c4)nc(SCCC(F)(F)F)nc32)[C@H](O)[C@@H]1O | 0.002 | 3.99 | 0.0015 | solubility thermodynamic [9]: 7.2 µM (≈ 3.93 µg/mL)
OCCO[C@H]1C[C@@H](n2nnc3c(N[C@@H]4C[C@H]4c4ccc(F)c(F)c4)nc(SCCC(F)(F)F)nc32)[C@H](O)[C@@H]1O | 0.0046 | 4.17 | 0.0015 | 

SMILES | fraction unbound at 5 h [2] | logD ([6]; pH 7.4, LogD7.4) | fraction unbound at 5 h ([8]; PPB) | also measured
C[C@H](CO)Nc1nc(SCc2cccc(F)c2F)nc2[nH]c(=O)cnc12 | 0.028 | 3.1 | 0.0114 | solubility thermodynamic [9]: 3.5 µM (≈ 1.33 µg/mL)
CC(C)Cc1nn(C)c(=O)c2c(SCCCO)n(Cc3cccc4ccccc34)cc12 | 0.0013 |  | 0.0027 | 
O=C(NCC12CC3CC(CC(C3)C1)C2)c1cc(CN2C[C@@H]3C[C@H]2CN3)ccc1Cl | 0.114 | 1.45 | 0.0968 | microsomal CLint ([5]; liver microsomes): 13 µL/min/mg
C[C@H](CO)Nc1nc(SCc2cccc(F)c2F)nc2nc(N)sc12 | 0.0366 | 3.29 | 0.0196 | solubility thermodynamic [9]: 8.1 µM (≈ 3.11 µg/mL)
CCCSc1nc(N[C@@H]2C[C@H]2c2ccccc2)c2nnn([C@@H]3C[C@H](O)[C@@H](O)[C@H]3O)c2n1 | 0.0066 | 3.97 |  | solubility thermodynamic [9]: 1.1 µM (≈ 0.487 µg/mL); microsomal CLint ([5]; liver microsomes): < 3 µL/min/mg
CCCCNc1nc(SCCC)nc2c1nnn2[C@@H]1C[C@H](CO)[C@@H](O)[C@H]1O | 0.0467 | 3.07 | 0.024 | microsomal CLint ([5]; microsomes): 6 µL/min/mg
C[C@H](CO)Nc1nc(SCc2cccc(Cl)c2F)nc2[nH]c(=O)sc12 | 0.0005 | 3.53 |  | solubility thermodynamic [9]: 1 µM (≈ 0.401 µg/mL)
Cc1oc(CN2CCNCC2)cc1C(=O)NCC12CC3CC(CC(C3)C1)C2 | 0.437 | 1.03 | 0.148 | 
CCOc1cc2ncc(C(N)=O)c(Nc3cc(C)ccc3F)c2cc1N1CCN(C)CC1 | 0.365 |  |  | fraction unbound at 5 h [1]: 0.107
OC[C@H](Nc1ncc(Cl)c(Nc2cc(C3CC3)n[nH]2)n1)c1ccc(F)cc1 | 0.0499 | 3.75 | 0.0437 | 
Cc1ccc(C(=O)N2CC3CNCC(C2)O3)cc1NC(=O)CC12CC3CC(CC(C3)C1)C2 |  | 2.12 |  | pKa [3]: 7.18; hepatocyte CLint [4]: 16.2 µL/min/1e6 cells; microsomal CLint ([5]; microsomes): 71.2 µL/min/mg
O=C(NCC12CC3CC(CC(C3)C1)C2)c1ccnc(N2CCNCC2)c1Cl |  |  |  | pKa [3]: 8.7; hepatocyte CLint [4]: 7.2 µL/min/1e6 cells; microsomal CLint ([5]; liver microsomes): 73 µL/min/mg
CCCSc1nc(N)c2ncn([C@@H]3O[C@H](CO)[C@@H](O)[C@H]3O)c2n1 | 0.591 |  | 0.483 | 
CC(C)Cn1c(=O)n(C)c(=O)c2c(SCCCO)n(Cc3cccc4ccccc34)cc21 | 0.0034 | 4.36 |  | 
CC(NC(C)(C)C)C(=O)c1cccc(Cl)c1 (centres undefined) [BUPROPION] |  |  |  | pKa [3]: 8.4; fraction unbound at 5 h [8]: 0.54; logD ([6]; pH 7.4): 2.12; hepatocyte CLint [4]: 72.4 µL/min/1e6 cells; microsomal CLint ([5]; microsomes): 12 µL/min/mg
CCCNC(=O)NS(=O)(=O)c1ccc(Cl)cc1 [CHLORPROPAMIDE] | 0.142 | -0.33 | 0.04 | 
CNc1cc2[nH]c(=O)n(-c3ccc(NC(=O)NS(=O)(=O)c4ccc(Cl)s4)cc3)c(=O)c2cc1F [ELINOGREL] | 0.0069 |  | 0.0042 | 
CC(C)n1c(/C=C/C(O)CC(O)CC(=O)O)c(-c2ccc(F)cc2)c2ccccc21 (centres undefined) [FLUVASTATIN] | 0.0028 |  |  | fraction unbound at 5 h [8]: 0.0048
CCCc1nc(C(C)(C)O)c(C(=O)O)n1Cc1ccc(-c2ccccc2-c2nnn[nH]2)cc1 [OLMESARTAN] | 0.0119 |  |  | 
CCNC(=O)[C@H]1C[C@@](F)(c2ccc(CN3CCCC3)c(F)c2)C1 [PF-03654746] | 0.807 |  |  | fraction unbound at 5 h [1]: 0.772
CNC(=C[N+](=O)[O-])NCCSCc1ccc(CN(C)C)o1 [RANITIDINE] | 0.711 | -0.95 |  | 
